The record followed here is PubChem BioAssay AID256 (DTP/NCI, 2004).

The test system of the experiment is CD2F1 mice, L1210 leukemia ip, survival T/C. Put plainly: NCI In Vivo Anticancer Drug Screen. Data for tumor model L1210 Leukemia (intraperitoneal) in CD2F1 (CDF1) mice. The following applies: higher = longer survival. The method in brief:
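Read-out first: treated-group measurement over vehicle-control measurement, expressed as a ratio. Animals bore a transplanted tumor line and were dosed with compound or vehicle.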

The mark [1] stands for this setting: endpoint: mean survival time, dose: 100.0 mg/kg/injection, schedule: Q04DX002 (ip), vehicle: saline with Tween-80.
[2] abbreviates: endpoint: mean survival time, dose: 200.0 mg/kg/injection, schedule: Q04DX002 (ip), vehicle: saline with Tween-80.
Where [3] appears, read: endpoint: mean survival time, dose: 400.0 mg/kg/injection, schedule: Q04DX002 (ip), vehicle: saline with Tween-80.
The mark [4] stands for this setting: endpoint: mean survival time, dose: 50.0 mg/kg/injection, schedule: Q01DX009 (ip), vehicle: saline with Tween-80.
Where [5] appears, read: endpoint: mean survival time, dose: 100.0 mg/kg/injection, schedule: Q01DX009 (ip), vehicle: saline with Tween-80.
The mark [6] stands for this setting: endpoint: mean survival time, dose: 100.0 mg/kg/injection, schedule: Q04DX003 (ip), vehicle: saline with Tween-80.
The mark [7] stands for this setting: endpoint: mean survival time, dose: 200.0 mg/kg/injection, schedule: Q04DX003 (ip), vehicle: saline with Tween-80.
Setting [8] is: endpoint: mean survival time, dose: 400.0 mg/kg/injection, schedule: Q04DX003 (ip), vehicle: saline with Tween-80.
Setting [9] is: endpoint: mean survival time, dose: 200.0 mg/kg/injection, schedule: Q01DX009 (ip), vehicle: saline with Tween-80.
The mark [10] stands for this setting: endpoint: mean survival time, dose: 400.0 mg/kg/injection, schedule: Q01DX009 (ip), vehicle: saline with Tween-80.
The mark [11] stands for this setting: endpoint: mean survival time, dose: 12.5 mg/kg/injection, schedule: Q01DX009 (ip), vehicle: saline with Tween-80.
Setting [12] is: endpoint: mean survival time, dose: 25.0 mg/kg/injection, schedule: Q01DX009 (ip), vehicle: saline with Tween-80.
[13] abbreviates: endpoint: mean survival time, dose: 100.0 mg/kg/injection, schedule: Q01DX001 (ip), vehicle: saline with Tween-80.
[14] abbreviates: endpoint: mean survival time, dose: 200.0 mg/kg/injection, schedule: Q01DX001 (ip), vehicle: saline with Tween-80.
[15] abbreviates: endpoint: mean survival time, dose: 400.0 mg/kg/injection, schedule: Q01DX001 (ip), vehicle: saline with Tween-80.

Toxic doses and inconclusive results are not listed.

In the case of `O=NN(CCCl)C(=O)Nc1ccc(CCO)cc1`, the T/C runs as follows: (endpoint: mean survival time, dose: 0.31 mg/kg/injection, schedule: Q01DX001 (ip), vehicle: other) 103 % of control; (endpoint: mean survival time, dose: 0.62 mg/kg/injection, schedule: Q01DX001 (ip), vehicle: other) 97 % of control; (endpoint: mean survival time, dose: 1.25 mg/kg/injection, schedule: Q01DX001 (ip), vehicle: other) 105 % of control; (endpoint: mean survival time, dose: 2.03 mg/kg/injection, schedule: Q01DX009 (ip), vehicle: acetone) 205 % of control; (endpoint: mean survival time, dose: 2.5 mg/kg/injection, schedule: Q01DX001 (ip), vehicle: other) 120 % of control; (endpoint: mean survival time, dose: 3.08 mg/kg/injection, schedule: Q01DX009 (ip), vehicle: saline with Tween-80) 203 % of control. In addition, the T/C was 300 % of control (endpoint: mean survival time, dose: 4.62 mg/kg/injection, schedule: Q01DX009 (ip), vehicle: saline with Tween-80); 277 % of control (endpoint: mean survival time, dose: 9.75 mg/kg/injection, schedule: Q01DX001 (ip), vehicle: other); 361 % of control (endpoint: mean survival time, dose: 19.5 mg/kg/injection, schedule: Q01DX001 (ip), vehicle: other); 98 % of control (endpoint: mean survival time, dose: 39.0 mg/kg/injection, schedule: Q01DX001 (ip), vehicle: other); 172 % of control (endpoint: mean survival time, dose: 100.0 mg/kg/injection, schedule: Q01DX001 (ip), vehicle: carboxymethylcellulose (CMC)); 170 % of control (endpoint: mean survival time, dose: 200.0 mg/kg/injection, schedule: Q01DX001 (ip), vehicle: carboxymethylcellulose (CMC)). Besides, for the setting “endpoint: mean survival time, dose: 400.0 mg/kg/injection, schedule: Q01DX001 (ip), vehicle: carboxymethylcellulose (CMC)”, the T/C was 307 % of control.
Consider `O=P(OCC(F)(F)F)(OCC(F)(F)F)OCC(F)(F)F`, for which the T/C under setting [1] was 98 % of control, the T/C under setting [2] was 102 % of control and the T/C under setting [3] is 105 % of control.
For the compound `CCOC(=O)C(C)(Br)C(=O)OCC`, the T/C reads like this: under setting [4], 104 % of control; under setting [5], 105 % of control.
Turning to `CCC(C)CC(O)CC1=CCCCC1` (stereo not given), the T/C by setting is: under setting [6], 91 % of control; under setting [7], 95 % of control; under setting [8], 106 % of control.
For `Cn1c(=O)c2[nH]c(-c3ccccc3[N+](=O)[O-])nc2n(C)c1=O`, the T/C reads like this: (endpoint: mean survival time, dose: 12.5 mg/kg/injection, schedule: Q01DX005 (ip), vehicle: other) 97 % of control; (endpoint: mean survival time, dose: 25.0 mg/kg/injection, schedule: Q01DX005 (ip), vehicle: other) 94 % of control; (endpoint: mean survival time, dose: 50.0 mg/kg/injection, schedule: Q01DX005 (ip), vehicle: other) 90 % of control; (endpoint: mean survival time, dose: 100.0 mg/kg/injection, schedule: Q01DX005 (ip), vehicle: other) 96 % of control; (endpoint: mean survival time, dose: 200.0 mg/kg/injection, schedule: Q01DX005 (ip), vehicle: other) 94 % of control.
Turning to `CCOC(=O)CCC1(C(=O)OC)C(=O)CCCCCCC1C(=O)OC` (stereo not given), the T/C is 102 % of control under setting [5], 101 % of control under setting [9] and 93 % of control under setting [10].
For the compound `O=C(Nc1ccccc1)Oc1ccc(OCc2ccccc2)cc1`, the T/C reads like this: under setting [11], 94 % of control; under setting [12], 90 % of control; under setting [4], 92 % of control.
`CSC(SC)=C1C(=O)NC(=O)NC1=O`: the T/C by setting is: (endpoint: median survival time, dose: 3.12 mg/kg/injection, schedule: Q01DX009 (ip), vehicle: saline) 101 % of control; (endpoint: median survival time, dose: 6.25 mg/kg/injection, schedule: Q01DX009 (ip), vehicle: saline) 112 % of control; (endpoint: median survival time, dose: 12.5 mg/kg/injection, schedule: Q01DX009 (ip), vehicle: saline) 109 % of control; (endpoint: median survival time, dose: 25.0 mg/kg/injection, schedule: Q01DX009 (ip), vehicle: saline) 109 % of control; (endpoint: median survival time, dose: 50.0 mg/kg/injection, schedule: Q01DX009 (ip), vehicle: saline) 116 % of control.
With `CC(=[N-])CC(C)=O.CC(=[N-])CC(C)=O.[Cu+2]`, the T/C reads like this: (endpoint: mean survival time, dose: 3.13 mg/kg/injection, schedule: Q01DX009 (ip), vehicle: saline with Tween-80) 100 % of control; (endpoint: mean survival time, dose: 6.25 mg/kg/injection, schedule: Q01DX009 (ip), vehicle: saline with Tween-80) 95 % of control; under setting [11], 90 % of control.
As for `COc1ccc2c(c1)CCCC2=O`, the T/C is 102 % of control under setting [5]; 90 % of control under setting [6]; 94 % of control under setting [9]; 93 % of control under setting [7]; 98 % of control under setting [8].
Consider `CN(C)C(=S)Oc1c([N+](=O)[O-])cc([N+](=O)[O-])cc1C(C)(C)C`, for which, under setting [1], the T/C is 91 % of control.
For the compound `C1=C(c2ccccc2)N(c2ccccc2)N=C(c2ccccc2)C1`, the T/C under setting [13] is 94 % of control, the T/C under setting [14] was 94 % of control and the T/C under setting [15] is 98 % of control.
Consider `[CH3][Sb]([CH3])([CH3])([O]C(=O)C(Cl)(Cl)Cl)[O]C(=O)C(Cl)(Cl)Cl`, for which the T/C by setting is: under setting [1], 98 % of control; under setting [2], 107 % of control; under setting [3], 103 % of control.
On to `O=C(Sc1ccc([N+](=O)[O-])cc1)C(=O)Sc1ccc([N+](=O)[O-])cc1`, for which the T/C is, setting by setting: under setting [11], 91 % of control; under setting [4], 98 % of control.
With `Nc1nc(N)c2nc(-c3ccccc3)c(N)nc2n1`, the T/C under setting [11] was 97 % of control; the T/C (endpoint: mean survival time, dose: 12.5 mg/kg/injection, schedule: Q04DX003 (ip), vehicle: saline with Tween-80) was 102 % of control; the T/C under setting [12] is 98 % of control; the T/C (endpoint: mean survival time, dose: 25.0 mg/kg/injection, schedule: Q04DX003 (ip), vehicle: saline with Tween-80) is 95 % of control; the T/C under setting [4] was 94 % of control; the T/C (endpoint: mean survival time, dose: 50.0 mg/kg/injection, schedule: Q04DX003 (ip), vehicle: saline with Tween-80) was 98 % of control.
As for `O=S(=O)(O)Sc1ncnc2nc[nH]c12`, the T/C is, setting by setting: (endpoint: mean survival time, dose: 10.0 mg/kg/injection, schedule: Q01DX009 (ip), vehicle: saline) 117 % of control; (endpoint: mean survival time, dose: 20.0 mg/kg/injection, schedule: Q01DX009 (ip), vehicle: saline) 112 % of control; (endpoint: mean survival time, dose: 320.0 mg/kg/injection, schedule: Q01DX009 (ip), vehicle: saline) 107 % of control; (endpoint: median survival time, dose: 37.5 mg/kg/injection, schedule: Q04DX003 (ip), vehicle: saline) 119 % of control; (endpoint: median survival time, dose: 100.0 mg/kg/injection, schedule: Q01DX009 (ip), vehicle: saline) 182 % of control; (endpoint: median survival time, dose: 200.0 mg/kg/injection, schedule: Q01DX009 (ip), vehicle: saline) 154 % of control. Also, under “endpoint: median survival time, dose: 300.0 mg/kg/injection, schedule: Q04DX003 (ip), vehicle: saline”, the T/C was 166 % of control.
Consider `CC1(c2ccccc2)CCc2ccccc21` (stereo not given), for which the T/C is 97 % of control under setting [5], 95 % of control under setting [9] and 95 % of control under setting [10].
For `CC(C)CC(Br)C(=O)NC(CC(C)C)C(=O)O` (stereo not given), the T/C reads like this: under setting [6], 95 % of control; under setting [7], 105 % of control; under setting [8], 94 % of control.
For `CN(C)C(=O)/N=N/C(=O)N(C)C`, the T/C (endpoint: mean survival time, dose: 100.0 mg/kg/injection, schedule: Q01DX001 (ip), vehicle: saline) was 104 % of control.
For the compound `O=C(O)c1c(Cl)cc(Cl)c(-c2c(Cl)cc(Cl)c(C(=O)O)c2Cl)c1Cl`, the T/C runs as follows: under setting [5], 103 % of control; under setting [6], 92 % of control; under setting [9], 98 % of control; under setting [7], 98 % of control; under setting [10], 104 % of control; under setting [8], 100 % of control.
Regarding `CC(=O)OCC(OC(C)=O)C1OC(OCc2ccccc2)C(OC(C)=O)C(OC(C)=O)C1OC(C)=O` (stereo not given), the T/C is, setting by setting: under setting [13], 95 % of control; under setting [14], 86 % of control; under setting [15], 88 % of control.
With `CCCC(O)CNCc1ccc2c3c(cccc13)CC2` (stereo not given), the T/C runs as follows: (endpoint: mean survival time, dose: 25.0 mg/kg/injection, schedule: Q01DX001 (ip), vehicle: Klucel (hydroxypropylcellulose) (HPC)) 93 % of control; (endpoint: mean survival time, dose: 50.0 mg/kg/injection, schedule: Q01DX001 (ip), vehicle: Klucel (hydroxypropylcellulose) (HPC)) 101 % of control.
